Measurements taken from the CheMixHub ionic liquid set.
± gives the uncertainty stated by the source.

Assay: xn = mol fraction of the nth substance listed
Conditions: 101 kPa

CCCCCCCCCCCCCCCC[n+]1ccccc1.O=C([O-])c1ccccc1O + C[C@H](N)C(=O)O + O
electrical conductivity [S/m]
Conditions | 293.15 K | 298.15 K | 303.15 K | 308.15 K | 313.15 K
x2 = 0.0009002, x1 = 5.4e-07 | 0.00045 ± 2.7e-05 | 0.00051 ± 3.1e-05 | 0.000575 ± 3.4e-05 | 0.000646 ± 3.9e-05 | 0.000726 ± 4.4e-05
x2 = 0.0009002, x1 = 1.09e-06 | 0.000683 ± 4.1e-05 | 0.000777 ± 4.7e-05 | 0.000872 ± 5.2e-05 | 0.000975 ± 5.8e-05 | 0.00108 ± 6.5e-05
x2 = 0.0009002, x1 = 1.63e-06 | 0.000904 ± 5.4e-05 | 0.00102 ± 6.1e-05 | 0.00114 ± 6.9e-05 | 0.00127 ± 7.7e-05 | 0.00141 ± 8.4e-05
x2 = 0.0009002, x1 = 2.17e-06 | 0.00109 ± 6.5e-05 | 0.00123 ± 7.4e-05 | 0.00139 ± 8.3e-05 | 0.00155 ± 9.3e-05 | 0.00172 ± 0.0001
x2 = 0.0009002, x1 = 2.53e-06 | – | – | – | 0.00181 ± 0.00011 | 0.002 ± 0.00012
x2 = 0.0009002, x1 = 2.71e-06 | 0.00125 ± 7.5e-05 | 0.00144 ± 8.7e-05 | 0.00162 ± 9.8e-05 | – | –
x2 = 0.0009002, x1 = 3.07e-06 | 0.00137 ± 8.2e-05 | 0.00158 ± 9.5e-05 | 0.0018 ± 0.00011 | 0.00202 ± 0.00012 | 0.00228 ± 0.00014
x2 = 0.0009002, x1 = 3.62e-06 | 0.00148 ± 8.9e-05 | 0.0017 ± 0.0001 | 0.00195 ± 0.00012 | 0.00222 ± 0.00013 | 0.00249 ± 0.00015
x2 = 0.0009002, x1 = 3.98e-06 | 0.00159 ± 9.5e-05 | 0.00182 ± 0.00011 | 0.00208 ± 0.00013 | 0.00237 ± 0.00014 | 0.00267 ± 0.00016
x2 = 0.0009002, x1 = 4.52e-06 | 0.0017 ± 0.0001 | 0.00194 ± 0.00012 | 0.00222 ± 0.00013 | 0.00253 ± 0.00015 | 0.00286 ± 0.00017
x2 = 0.0009002, x1 = 4.88e-06 | 0.00181 ± 0.00011 | 0.00206 ± 0.00012 | 0.00235 ± 0.00014 | 0.00268 ± 0.00016 | 0.00303 ± 0.00018
x2 = 0.0009002, x1 = 5.43e-06 | 0.00191 ± 0.00011 | 0.00218 ± 0.00013 | 0.00248 ± 0.00015 | 0.00282 ± 0.00017 | 0.00319 ± 0.00019
x2 = 0.0009002, x1 = 5.79e-06 | 0.002 ± 0.00012 | 0.00228 ± 0.00014 | 0.0026 ± 0.00016 | 0.00295 ± 0.00018 | 0.00334 ± 0.0002
x2 = 0.0009002, x1 = 6.15e-06 | 0.0021 ± 0.00013 | 0.00239 ± 0.00015 | 0.00271 ± 0.00016 | 0.00308 ± 0.00018 | 0.00347 ± 0.00021
x2 = 0.0009002, x1 = 6.51e-06 | 0.00217 ± 0.00013 | 0.00247 ± 0.00015 | 0.0028 ± 0.00017 | 0.00318 ± 0.00019 | 0.0036 ± 0.00022
x2 = 0.0009002, x1 = 6.69e-06 | 0.00224 ± 0.00013 | 0.00255 ± 0.00015 | 0.00289 ± 0.00017 | 0.00327 ± 0.0002 | 0.00369 ± 0.00022
x2 = 0.001799, x1 = 3.6e-07 | 0.00047 ± 2.8e-05 | 0.000542 ± 3.3e-05 | 0.000625 ± 3.8e-05 | 0.000719 ± 4.3e-05 | 0.000829 ± 5e-05
x2 = 0.001799, x1 = 5.4e-07 | 0.000604 ± 3.6e-05 | 0.000697 ± 4.2e-05 | 0.000797 ± 4.8e-05 | 0.000911 ± 5.5e-05 | 0.00103 ± 6.2e-05
x2 = 0.001799, x1 = 9.1e-07 | 0.00073 ± 4.4e-05 | 0.000837 ± 5e-05 | 0.000953 ± 5.7e-05 | 0.00108 ± 6.5e-05 | 0.00123 ± 7.4e-05
x2 = 0.001799, x1 = 1.27e-06 | 0.000889 ± 5.3e-05 | 0.00102 ± 6.1e-05 | 0.00115 ± 6.9e-05 | 0.0013 ± 7.8e-05 | 0.00146 ± 8.8e-05
x2 = 0.001799, x1 = 1.63e-06 | 0.00104 ± 6.3e-05 | 0.00119 ± 7.2e-05 | 0.00134 ± 8.1e-05 | 0.00151 ± 9.1e-05 | 0.0017 ± 0.0001
x2 = 0.001799, x1 = 1.81e-06 | 0.00112 ± 6.7e-05 | 0.00128 ± 7.7e-05 | 0.00145 ± 8.9e-05 | 0.00163 ± 9.9e-05 | 0.00183 ± 0.00011
x2 = 0.001799, x1 = 2e-06 | 0.00121 ± 7.3e-05 | 0.00138 ± 8.7e-05 | 0.00156 ± 9.3e-05 | 0.00175 ± 0.00011 | 0.00196 ± 0.00012
x2 = 0.001799, x1 = 2.18e-06 | 0.00127 ± 7.6e-05 | 0.00145 ± 8.7e-05 | 0.00165 ± 9.9e-05 | 0.00186 ± 0.00011 | 0.00208 ± 0.00013
x2 = 0.001799, x1 = 2.36e-06 | – | – | 0.00177 ± 0.00011 | 0.00198 ± 0.00012 | 0.00222 ± 0.00013
x2 = 0.001799, x1 = 2.54e-06 | 0.00134 ± 8e-05 | 0.00155 ± 9.3e-05 | – | – | –
x2 = 0.001799, x1 = 2.72e-06 | 0.00142 ± 8.5e-05 | 0.00164 ± 0.0001 | 0.00188 ± 0.00011 | 0.00212 ± 0.00013 | 0.0024 ± 0.00014
x2 = 0.001799, x1 = 3.09e-06 | 0.00151 ± 9e-05 | 0.00174 ± 0.0001 | 0.002 ± 0.00012 | 0.00229 ± 0.00014 | 0.0026 ± 0.00016
x2 = 0.001799, x1 = 3.63e-06 | 0.00161 ± 9.7e-05 | 0.00186 ± 0.00011 | 0.00213 ± 0.00013 | 0.00244 ± 0.00015 | 0.00276 ± 0.00017
x2 = 0.001799, x1 = 3.99e-06 | 0.00173 ± 0.0001 | 0.00198 ± 0.00012 | 0.00227 ± 0.00014 | 0.0026 ± 0.00016 | 0.00296 ± 0.00018
x2 = 0.001799, x1 = 4.54e-06 | 0.00183 ± 0.00011 | 0.0021 ± 0.00013 | 0.0024 ± 0.00014 | 0.00275 ± 0.00017 | 0.00312 ± 0.00019
x2 = 0.001799, x1 = 4.9e-06 | 0.00192 ± 0.00012 | 0.0022 ± 0.00013 | 0.00251 ± 0.00015 | 0.00287 ± 0.00017 | 0.00326 ± 0.0002
